What all share (format): cell-based, mouse
The test system of one data set is MSCs. In words: MTS viability assay, MSCs. On the procedure: (§1) In vitro toxicity of Ac4ManNAz and LEF, and viabilities of functionalized MSCs and MOLs: In vitro toxicities of Ac4ManNAz and LEF against MSCs and MOLs, and the viabilities of functionalized MSCs and MOLs were quantified by MTS assay. Briefly, treated/functionalized cells were cultured in complete media for 4 days. The phenol-red media was replaced by phenol red-free DMEM (supplemented with 10% FBS) before quantifying the viabilities via MTS assay according to the manufacturer's protocol. The MSCs were seeded at a density of 2×10^4 cells per well and the MOLs were seeded at a density of 1×10^4 cells per well in a 96-well plate.

For data set [1], the system named is 2D2 cells (MOG-specific CD4+ T cells). Description: PD-1 and CTLA-4 expressions of myelin-specific 2D2 cells after co-culture (FACS). The note with it: E:T 10:1, 48 h. On the procedure:
Myelin-specific CD4 T cell in vitro activation: Mouse IFN-γ and mouse IL-17A secreted from the activated myelin-specific 2D2 cells were quantified by ELISA assays as previously reported^56. […] The cell culture media (contain mainly the 2D2 cells) were preserved. 2D2 cells were collected from the cultured media via centrifugation at 1,000 g for 10 min. The moue IFN-γ and mouse IL-17A concentrations in the supernatants were quantified via mouse IFN-γ ELISA kit (ab100689; Abcam, Cambridge, MA) and mouse IL-17A ELISA kit (ab199081; Abcam, Cambridge, MA), according to manufacturer's instructions. […] MIH4, catalog number: 53-9969-42, Invitrogen), PE-labeled anti-mouse CTLA-4 antibody (clone: […] Stained cells were fixed with 4% paraformaldehyde (4% PFA; Sigma) and kept in dark at 4° C. before further FACS study.

A further data set has as its system MOLs. In words: MTS viability assay, MOLs. On the procedure: as §1

As to `Cc1oncc1C(=O)Nc1ccc(C(F)(F)F)cc1` [small-molecule LEF, Leflunomide], the “in vitro toxicity against MSCs” value in the data set with MSCs is listed as “moderate in vitro toxicity”. Also, the “upregulation of PD-1 and CTLA-4 in co-cultured 2D2 cells” value in data set [1] is reported as “increased the expression of CTLA-4 in the co-cultured 2D2 cells”. The “in vitro toxicity against MOLs” value in the data set on MOLs is given as “insignificant toxicity”.

The record behind these values is patent US20240108662A1, “ENGINEERED CELLS FUNCTIONALIZED WITH IMMUNE CHECKPOINT MOLECULES AND USES THEREOF” (The University of North Carolina at Chapel Hill, priority 2020, published 2024).
